In brackets after ≈: the same amount, converted by molar mass. Several values for one entry are separate records, joined by “and”; a condition that tells them apart may be missing. Identical values can stand only once. Like-named read-outs stand apart in the source and are kept apart here. Values belong to the molecule of their own block, whether it stands above or below them.
Columns and labels:
[1] = test system: chloroquine-sensitive 3D7 strain of P. falciparum; experiment: SYBR green I fluorescence-based antiplasmodial assay, Pf3D7; type: cell-based; conditions: Plasmodium falciparum
Procedure: (§1) The cytotoxicity assay was performed using the African green monkey normal kidney Vero cells (ATCC CRL 1586) and murine macrophages Raw 264.7 cells (ATCC #TIB-71) obtained from the American Type Culture Collection (ATCC).
(§2) The culture medium was renewed daily to propagate the culture. Thin blood smears were made and stained with 10% Giemsa solution for 10 min and microscopically examined under oil immersion to monitor cell cycle transition and parasitaemia.
(§3) Before each experiment, synchronized ring stage parasites were obtained by 5% sorbitol (w/v) treatment as previously described.
(§4) The parasite susceptibility was determined in 96-well microtitration plates using the SYBR green I fluorescence-based method with some modifications. Briefly, sorbitol-synchronized ring stage parasites (hematocrit: 1.5%, parasitemia: 1%) were incubated in the presence of two-fold diluted extracts (0.78-100 μg/mL, DMSO 0.5%), fractions (0.39-50 μg/mL, DMSO 0.5%) or compounds (0.15-20 μg/mL, DMSO 0.5%). […] Drug-free culture wells in 0.5% DMSO were considered as positive growth controls. After 72 h of incubation, 50 μL of SYBR Green I lysis solution [Tris (20 mM; pH 7.5) (Sigma–Aldrich), EDTA (5 mM) (Sigma–Aldrich), saponin (0.008%, w/v) (Sigma–Aldrich), Triton X-100 (0.08%, v/v) (Sigma–Aldrich) and SYBR Green (2x) (Life technologies)] were added to each well and the plate was incubated in the dark at 37 °C for 30 min. SYBR green I fluorescence was measured using a Fluoroskan Ascent multi-well plate reader (Thermo scientific) with excitation and emission wavelength bands set at 485 and 538 nm, respectively. […] The resistance indices (RI), defined as the ratio of the EC50 of drug-resistant strain to the EC50 of sensitive strain were calculated.
(§5) Microsoft Excel Software was used to calculate the percentage of inhibition. The EC50 and CC50 values for the in vitro antiplasmodial activity were determined by non-linear regression analysis using GraphPad Prism 5.0 Software.

[2] = test system: African green monkey normal kidney Vero cells; experiment: Resazurin-based cytotoxicity assay, Vero cells; conditions: over Vero and Raw 264.7 cells and Pf3D7 and PfDd2 strains
Procedure: as §1
(§6) The cytotoxicity of active natural products was assessed according to the protocol described by. The African green monkey normal kidney Vero cells (ATCC CRL 1586) and murine macrophages Raw 264.7 cells (ATCC #TIB-71) were maintained in T-25 flasks (Corning Incorporated, USA) using complete Dulbecco’s Modified Eagle’s Medium (Sigma-Aldrich, Germany), supplemented with, 10% Fetal Bovine Serum (Sigma-Aldrich, Germany), 0.2% sodium bicarbonate (w/v) (Sigma-Aldrich, Germany) and 1% (v/v) Penicillin-Streptomycin (Sigma-Aldrich, Germany). The cells were kept at 37 °C for 72 h in 5% CO2 incubator, and the medium was renewed each 72 h and the cell density monitored under the inverted fluorescent microscope Etaluma 520 (Etaluma, USA) until the formation of a monolayer. Confluent culture (nearly 90%) was trypsinized (0.05% Trypsin-EDTA, Sigma-Aldrich, Germany), then centrifuged at 1800 rpm for 5 min and the resulting pellet was re-suspended in culture medium. Cells at 10^4cells per well were seeded (100 μL) in 96-well culture plates (Costar, USA) and incubated overnight to allow cell adhesion. Thereafter, 10 μL of serially diluted extracts, fractions (≤200 μg/mL), and compounds (≤50 μg/mL) were added to plate wells in duplicate. The plates were incubated in a humidified and 5% CO2 atmosphere at 37 °C for 48 h. Podophyllotoxin at 20 μM was added as positive control and wells containing untreated cells were included as 100% growth control. Ten microliters of resazurin stock solution (0.15 mg/mL in sterile PBS), were added to each well, and incubated for an additional 4 h. Fluorescence was then read using a Magelan Infinite M200 fluorescence multi-well plate reader (Tecan) with excitation and emission wavelengths at 530 and 590 nm, respectively. The percentage of cell viability was calculated with regard to the negative control, and subsequently used to determine the concentration that reduced 50% of cell viability (CC50) by non-linear regression using the GraphPad Prism software version 5.0 (San Diego, California) as described above. Selectivity indices (SI = CC50/EC50, defining the balance between cytotoxicity and antiplasmodial activity) were calculated for each test substance.
as §5

in vitro [3] = conditions: African green monkey
Procedure: as §1, §6, §5

[4] = test system: multi-resistant Dd2 strain of P. falciparum; experiment: SYBR green I fluorescence-based antiplasmodial assay, PfDd2; type: cell-based; conditions: Plasmodium falciparum
Procedure: as §1, §2, §3, §4, §5

in vitro [5] = conditions: mouse
Procedure: as §1
as §6, with “Podophyllotoxin at 20 μM was added as positive control and wells containing untreated cells were included as 100% growth control. Ten microliters of resazurin stock solution (0.15 mg/mL in sterile PBS), were added to each well, and incubated for an additional 4 h.” left out, “The percentage of cell viability was calculated with regard to the negative control, and subsequently used to determine the concentration that reduced 50% of cell viability (CC50) by non-linear regression using the GraphPad Prism software version 5.0 (San Diego, California) as described above.” left out
as §5

[6] = test system: resistant strain W2 of P. falciparum; parameters: method as in PMID 21503279; conditions: cited from earlier work
[7] = test system: chloroquine resistant strain Pf7G8; parameters: method as in PMID 18710482; conditions: read-out: EC50 against chloroquine resistant strain Pf7G8; cited from earlier work
normal human cells HUVE = conditions: read-out: 50% lethal concentration (LC50), HUVE; cited from earlier work
[8] = test system: multi-resistant Dd2 strain of P. falciparum; parameters: method as in PMID 12064726; conditions: read-out: EC50 against multi-resistant Dd2 strain; cited from earlier work
[9] = test system: human liver cell line Huh7; conditions: cited from earlier work
[10] = test system: chloroquine sensitive strain Pf3D7; parameters: method as in PMID 18710482; conditions: read-out: EC50 against chloroquine sensitive strain Pf3D7; cited from earlier work
[11] = test system: chloroquine-sensitive strain D10 of P. falciparum; parameters: method as in PMID 21503279; conditions: cited from earlier work
red blood cells = conditions: cited from earlier work
P. berghei = conditions: murine malaria model, cited from earlier work
normal human cells TIG-1 = conditions: read-out: 50% lethal concentration (LC50), TIG-1; cited from earlier work
[12] = test system: chloroquine sensitive poW strain of P. falciparum; parameters: method as in PMID 12064726; conditions: read-out: EC50 against chloroquine sensitive poW strain; cited from earlier work
FabI = test system: FabI; parameters: method as in PMID 16722653; conditions: enzyme of fatty acid biosynthesis of P. falciparum; read-out: EC50 of FabI inhibition; cited from earlier work
Pf3D7 = test system: Pf3D7; parameters: method as in PMID 19015351; conditions: read-out: antiplasmodial potency Pf3D7; cited from earlier work
PfDd2 = test system: PfDd2; parameters: method as in PMID 19015351; conditions: read-out: antiplasmodial potency PfDd2; cited from earlier work
[13] = 3D7, isolated compounds and reference drugs (Table 3), 72 h incubation, read-out: EC50 (μM) Pf3D7
[14] = DD2, isolated compounds and reference drugs (Table 3), 72 h incubation, read-out: EC50 (μM) PfDd2
[15] = DD2, 72 h, read-out: EC50 (μM) PfDd2

EC50 [1, 13]: 4.27 ± 0.05 µM
EC50 [4, 14]: 1.36 ± 0.47 µM
SMILES: COc1c(O)cc2c(=O)oc3c(OC)c(O)cc4c(=O)oc1c2c34 [Compound 6, 3,3′-O-dimethylellagic acid]
SI (selectivity index) [2]: greater than 9
CC50 at 48 h (in vitro [3]): > 152 µM
CC50 at 48 h (in vitro [5]): > 152 µM

SMILES: O=c1cc(-c2ccc(O)cc2)oc2cc(O)cc(O)c12 [Compound 1, apigenin]
EC50 [1, 13]: 19 ± 0.72 µM
EC50 against resistant strain W2 [6]: 20.2 ± 6.4 µg/mL (≈ 74.7 µM)
EC50 [7]: 13 ± 2 µM
CC50 (normal human cells HUVE): 110 µM
EC50 [8]: 28.5 µM
cytotoxicity on Huh7, in words [9]: no signs of cytotoxicity
EC50 [10]: 20 ± 3 µM
EC50 against chloroquine-sensitive strain D10 [11]: 25.4 ± 7.9 µg/mL (≈ 94 µM)
membrane disruption on red blood cells, in words (red blood cells): no signs
suppression of P. berghei parasiteamia (P. berghei; 15 mg/kg/day): 49.23%
suppression of P. berghei parasiteamia (P. berghei; 35 mg/kg/day): 50.3%
suppression of P. berghei parasiteamia (P. berghei; 70 mg/kg/day): 69.74%
SI (selectivity index) [2]: greater than 9
CC50 at 48 h (in vitro [3]): > 185 µM
CC50 (normal human cells TIG-1): 110 µM
EC50 [12]: 19 µM
EC50 [4, 14]: 16.4 ± 0.52 µM
CC50 at 48 h (in vitro [5]): > 185 µM
EC50 (FabI): 50 µM

EC50 [1, 13]: > 200 µM
EC50 [4, 14]: > 200 µM
SMILES: Oc1ccc([C@H]2Oc3cc(O)cc(O)c3C[C@@H]2O)cc1 [Compound 2, afzelechin]

EC50 [1, 13]: > 200 µM
EC50 [4, 14]: > 200 µM
SMILES: O=c1c(O)c(-c2ccc(O)cc2)oc2cc(O)cc(O)c12 [Compound 3, kaempferol]

EC50 ([1]; 3D7, Table 1 reference drugs, 72 h incubation, read-out: EC50 Pf3D7, reference drugs): 0.014 ± 0.001 µM
EC50 [1, 13]: 0.014 ± 0.001 µM
EC50 ([4]; DD2, Table 1 reference drugs, 72 h incubation, read-out: EC50 PfDd2, reference drugs): 0.018 ± 0.003 µM
EC50 [4, 14]: 0.018 ± 0.003 µM
SMILES: C[C@@H]1CC[C@H]2[C@@H](C)C(=O)O[C@@H]3O[C@@]4(C)CC[C@@H]1[C@]32OO4 [Artemisinin, reference compound]

SMILES: O=c1oc2c(O)c(O)cc3c(=O)oc4c(O)c(O)cc1c4c23 [ellagic acid]
EC50 (Pf3D7): 0.819 µM
EC50 (PfDd2): 0.351 µM

SMILES: COc1cc([C@@H]2c3cc4c(cc3[C@H](O)[C@H]3COC(=O)[C@H]23)OCO4)cc(OC)c1OC [Podophyllotoxin, reference compound]
CC50 at 48 h (in vitro [3]): 1.89 µg/mL and 4.56 µM
CC50 at 48 h (in vitro [5]): 0.76 µg/mL and 1.83 µM

SMILES: C=C(C)[C@@H]1CC[C@]2(C)CC[C@]3(C)C(CCC4[C@@]5(C)C[C@H](O)[C@H](O)C(C)(C)C5CC[C@]43C)C12 (stereo partly drawn) [Compound 4, 2β,3β-dihydroxylup-20-ene]
EC50 [1, 13]: > 200 µM
EC50 [4, 15]: > 200 µM

SMILES: CCN(CC)CCCC(C)Nc1ccnc2cc(Cl)ccc12 (stereo not drawn) [Chloroquine, reference compound]
EC50 ([1]; 3D7, 72 h, read-out: EC50 (μM) Pf3D7): 0.018 ± 0.002 µM
EC50 ([1]; 3D7, 72 h, read-out: EC50 Pf3D7, reference drugs (μM)): 0.018 ± 0.002 µM
EC50 [4, 15]: 0.449 ± 0.065 µM
EC50 ([4]; DD2, 72 h, read-out: EC50 PfDd2, reference drugs (μM)): 0.449 ± 0.065 µM

Source: PMC8243547 (BMC Complementary Medicine and Therapies, 2021)
